The results in this text go back to patent US8956648B2, “Calciumphosphate-based nanoparticles as carrier-systems for photodynamic therapy” (Biolitec PharmaMarketing Ltd, priority 2008, dated 2015).

This assay concerns human colon adenocarcinoma cell line HT29. The assay is described as follows: Photodynamic cell test on HT29 tumor cell line (XTT viability after laser irradiation). It counts as cell-based. The note with it: HT29 cells, 24 h incubation, 652 nm diode laser 50 J cm^−2, XTT assay. How it is done: The photosensitizing activity was determined in the human colon adenocarcinoma cell line HT29. The HT29 cell lines were grown in DMEM (cc-pro GmbH) supplemented with 10% heat-inactivated fetal calf serum (FCS, cc-pro GmbH), 1% penicillin (10000 IU) and streptomycin (10,000 μg ml^−1, cc-pro GmbH). Cells were kept as a monolayer culture in a humidified incubator (5% CO2 in air at 37° C.).
A stock solution of the nanoparticle formulation was kept in the dark at 4° C. Further dilution was performed in RPMI 1640 medium without phenol red supplemented with 10% FCS to reach a final photosensitizer concentration of 2 or 10 μM, respectively.
2-10^4 cells ml^−1 were seeded in micro plates ([…]). Cells were incubated with fresh medium (RPMI without phenol red) containing 10% FCS with 2 or 10 μM of the photosensitizer for 24 h before light exposure. Before photosensitization, cells were washed, incubated with RPMI without phenol red and 10% FCS, then irradiated at room temperature with a 652 nm diode laser (Ceralas PDT 652, biolitec AG) at a fixed fluence rate of 100 mW cm^−2 (50 J cm^−2). […]
The cell viability was assessed by the XTT assay. […]
The absorbance of the samples was measured with a spectrophotometer (Tecan Infinite 200, Tecan Group Ltd.) at a wavelength of 490 nm. In order to measure reference absorbance (to measure non-specific readings) a wavelength of 630-690 nm was used. […]

In the case of `O=P(O)(O)Oc1ccc(-c2c3nc(c(-c4ccc(OP(=O)(O)O)cc4)c4ccc([nH]4)c(-c4ccc(OP(=O)(O)O)cc4)c4nc(c(-c5ccc(OP(=O)(O)O)cc5)c5ccc2[nH]5)C=C4)C=C3)cc1` [pTPPP, 5,10,15,20-tetrakis(4-phosphonooxyphenyl)porphine], the photodynamic activity entry is “no photodynamic activity”.
